Values after ≈ are worked out from the molar mass of the structure shown.
Each compound was assayed on T. mentagrophytes (TIMM1189) (assay: Antifungal Activity Test (Measurement of Minimum Inhibitory Concentration)). Details: Trichophyton mentagrophytes, 168 h, Sabouraud dextrose broth, 27° C., 1 week, visual determination, read-out: MIC (minimum concentration at which growth was completely inhibited).
Type: cell-based
Experimental: Antifungal activities of compounds according to the present invention against Trichophyton sp. were determined. Described specifically, T. mentagrophytes (TIMM1189) was cultured at 27° C. for 2 weeks on Sabouraud dextrose agar slants in advance, whereby it was allowed to form sufficient conidia. The conidia were washed in a sterilized physiological saline, which contained Tween 80 at a concentration of 0.05 wt./vol. %, by rubbing the conidia with a platinum loop, whereby the conidia were suspended. The suspension was filtered through a double-layer gauze so that only the conidia were collected in a form suspended in the physiological saline. The suspension was diluted to adjust the concentration of conidia to 1×10^5 conidia/ml, whereby a test fungus solution was obtained. Meanwhile, 4 mg of one of the test compounds were taken, to which 1 ml of dimethyl sulfoxide was added to prepare a stock. The stock was subjected to doubling dilution with ethanol to prepare diluted drug solutions. To each well of a 96-well microplate for tissue culture, 175 μl of Sabouraud dextrose broth, 5 μl of the corresponding drug solution and 20 μl of the test fungus solution were added. Subsequent to thorough mixing, the fungus strain was cultured at 27° C. for 1 week.

| MIC [mg/L] | Compound |
| --- | --- |
| 12.5 (≈ 36.4 µM) | CN(Cc1ccc(C(C)(C)C)cc1)Cc1ccccc1-c1ccccc1 [Compound 1, 4-tert-butyl-N-methyl-N-(2-phenylbenzyl)benzylamine] |
| 25 (≈ 72.8 µM) | CN(Cc1ccc(C(C)(C)C)cc1)Cc1cccc(-c2ccccc2)c1 [Compound 2, 4-tert-butyl-N-methyl-N-(3-phenylbenzyl)benzylamine] |
| 12.5 (≈ 36.4 µM) | CN(Cc1ccc(-c2ccccc2)cc1)Cc1ccc(C(C)(C)C)cc1 [Compound 3, 4-tert-butyl-N-methyl-N-(4-phenylbenzyl)benzylamine] |
| 100 (≈ 291 µM) | CN(Cc1ccc(C(C)(C)C)cc1)C(c1ccccc1)c1ccccc1 [Compound 4, 4-tert-butyl-N-diphenylmethyl-N-methylbenzylamine] |
| 12.5 (≈ 39.4 µM) | CN(C/C=C/C#CC(C)(C)C)Cc1ccccc1-c1ccccc1 [Compound 5, trans-N-(6,6-dimethyl-2-hepten-4-yn-1-yl)-N-methyl-2-phenylbenzylamine] |
| 100 (≈ 315 µM) | CN(C/C=C\C#CC(C)(C)C)Cc1ccccc1-c1ccccc1 [Compound 6, cis-N-(6,6-dimethyl-2-hepten-4-yn-1-yl)-N-methyl-2-phenylbenzylamine] |
| 12.5 (≈ 39.4 µM) | CN(C/C=C/C#CC(C)(C)C)Cc1cccc(-c2ccccc2)c1 [Compound 7, trans-N-(6,6-dimethyl-2-hepten-4-yn-1-yl)-N-methyl-3-phenylbenzylamine] |
| 12.5 (≈ 39.4 µM) | CN(C/C=C\C#CC(C)(C)C)Cc1cccc(-c2ccccc2)c1 [Compound 8, cis-N-(6,6-dimethyl-2-hepten-4-yn-1-yl)-N-methyl-3-phenylbenzylamine] |
| 12.5 (≈ 39.4 µM) | CN(C/C=C/C#CC(C)(C)C)Cc1ccc(-c2ccccc2)cc1 [Compound 9, trans-N-(6,6-dimethyl-2-hepten-4-yn-1-yl)-N-methyl-4-phenylbenzylamine] |
| 100 (≈ 315 µM) | CN(CC=CC#CC(C)(C)C)C(c1ccccc1)c1ccccc1 [Compound 11, N-(6,6-dimethyl-2-hepten-4-yn-1-yl)-N-methyl(diphenylmethyl)amine] |

— US6015925A, “Antifungal agents” (Pola Chemical Industries, Inc., priority 1998, dated 2000)
